Source: PubChem BioAssay AID330 (DTP/NCI, 2004)
Where “and” joins values, the source holds several entries; their conditions need not be identical. Identical values can stand only once. Toxic doses and inconclusive results are not listed.

Tested on: P388 leukemia ip, CD2F1 mice, survival T/C
Test: NCI In Vivo Anticancer Drug Screen. Data for tumor model P388 Leukemia (intraperitoneal) in CD2F1 (CDF1) mice
Details: endpoint: median survival time, higher = longer survival
Summary of the method: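 Mice carrying the transplanted tumor received test compound or vehicle. Survival was recorded in each group, and the value is the treated-group measurement divided by that of the vehicle-treated control group.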

[1] = dose: 50.0 mg/kg/injection, schedule: Q01DX009 (ip), vehicle: saline with Tween-80
[2] = dose: 100.0 mg/kg/injection, schedule: Q01DX009 (ip), vehicle: saline with Tween-80
[3] = dose: 50.0 mg/kg/injection, schedule: Q04DX003 (ip), vehicle: saline
[4] = dose: 50.0 mg/kg/injection, schedule: Q01DX009 (ip), vehicle: Klucel (hydroxypropylcellulose) (HPC)
[5] = dose: 100.0 mg/kg/injection, schedule: Q01DX009 (ip), vehicle: Klucel (hydroxypropylcellulose) (HPC)
[6] = dose: 60.0 mg/kg/injection, schedule: Q01DX005 (ip), vehicle: saline with Tween-80
[7] = dose: 120.0 mg/kg/injection, schedule: Q01DX005 (ip), vehicle: saline with Tween-80
[8] = dose: 240.0 mg/kg/injection, schedule: Q01DX005 (ip), vehicle: saline with Tween-80

O=C(C[N+](=O)[O-])c1ccc(Cl)cc1
T/C [1]: 87 % of control
T/C [2]: 91 % of control

CCCC1CC2=C(C(=O)c3c(OC)cccc3C2=O)C(O)(C(F)(F)F)O1 (stereo not given)
T/C (dose: 100.0 mg/kg/injection, schedule: Q01DX001 (ip), vehicle: Klucel (hydroxypropylcellulose) (HPC)): 103 % of control
T/C (dose: 200.0 mg/kg/injection, schedule: Q01DX001 (ip), vehicle: Klucel (hydroxypropylcellulose) (HPC)): 109 % of control
T/C (dose: 400.0 mg/kg/injection, schedule: Q01DX001 (ip), vehicle: Klucel (hydroxypropylcellulose) (HPC)): 94 % of control

c1cc(-c2cc3ccc(C4=NCCN4)cc3[nH]2)ccc1C1=NCCN1
T/C (dose: 6.25 mg/kg/injection, schedule: Q04DX003 (ip), vehicle: saline): 116 % of control
T/C (dose: 12.5 mg/kg/injection, schedule: Q04DX003 (ip), vehicle: saline): 118 % of control
T/C [3]: 154 % of control and 171 % of control and 172 % of control

CCCCCCCCCCCC(=O)C(=O)c1ccc(O)c(C)c1O
T/C [4]: 107 % of control
T/C [5]: 105 % of control
T/C (dose: 200.0 mg/kg/injection, schedule: Q01DX009 (ip), vehicle: Klucel (hydroxypropylcellulose) (HPC)): 110 % of control

CN(C)c1ccc(-c2nc(-c3ccccc3)c(-c3ccccc3)[nH]2)cc1
T/C [1]: 104 % of control
T/C [2]: 100 % of control
T/C (dose: 200.0 mg/kg/injection, schedule: Q01DX009 (ip), vehicle: saline with Tween-80): 104 % of control
T/C (dose: 400.0 mg/kg/injection, schedule: Q01DX009 (ip), vehicle: saline with Tween-80): 106 % of control

O=C(CCl)NC(Cc1ccsc1)C(=O)O (stereo not given)
T/C (dose: 50.0 mg/kg/injection, schedule: Q01DX009 (ip), vehicle: saline): 93 % of control
T/C (dose: 100.0 mg/kg/injection, schedule: Q01DX009 (ip), vehicle: saline): 102 % of control

O=S(=O)(Nc1ccn(-c2ccccc2)n1)c1ccc(NCc2c3ccccc3nc3cc(Cl)ccc23)cc1
T/C [6]: 99 % of control
T/C [7]: 91 % of control
T/C [8]: 93 % of control

CC(=O)NC1C(OC(C)=O)OC(C[Se][As](C)C)C(OC(C)=O)C1OC(C)=O (stereo not given)
T/C [4]: 105 % of control
T/C [5]: 110 % of control

O=C1NN2CCN=C2c2cccnc21
T/C (dose: 3.75 mg/kg/injection, schedule: Q01DX005 (ip), vehicle: saline with Tween-80): 100 % of control
T/C (dose: 7.5 mg/kg/injection, schedule: Q01DX005 (ip), vehicle: saline with Tween-80): 95 % of control
T/C (dose: 15.0 mg/kg/injection, schedule: Q01DX005 (ip), vehicle: saline with Tween-80): 100 % of control and 93 % of control
T/C [6]: 101 % of control

CC(=O)OC1CC2C(C)(C)C(=O)C=CC2(C)C2CCC3(C)C(c4ccoc4)CC(=O)C3C12C (stereo not given)
T/C (dose: 0.5 mg/kg/injection, schedule: Q01DX005 (ip), vehicle: Klucel (hydroxypropylcellulose) (HPC)): 99 % of control
T/C (dose: 1.0 mg/kg/injection, schedule: Q01DX005 (ip), vehicle: Klucel (hydroxypropylcellulose) (HPC)): 100 % of control
T/C (dose: 2.0 mg/kg/injection, schedule: Q01DX005 (ip), vehicle: Klucel (hydroxypropylcellulose) (HPC)): 97 % of control
T/C (dose: 4.0 mg/kg/injection, schedule: Q01DX005 (ip), vehicle: Klucel (hydroxypropylcellulose) (HPC)): 100 % of control
T/C (dose: 8.0 mg/kg/injection, schedule: Q01DX005 (ip), vehicle: Klucel (hydroxypropylcellulose) (HPC)): 98 % of control

CCOc1ccc(/C=C/C(C)=N/NC(N)=Nc2ccc(Cl)cc2)cc1
T/C (dose: 12.5 mg/kg/injection, schedule: Q01DX005 (ip), vehicle: saline with Tween-80): 96 % of control
T/C (dose: 25.0 mg/kg/injection, schedule: Q01DX005 (ip), vehicle: saline with Tween-80): 97 % of control
T/C (dose: 50.0 mg/kg/injection, schedule: Q01DX005 (ip), vehicle: saline with Tween-80): 107 % of control and 97 % of control

O=C(Nc1cccc(Br)c1)Oc1cccc2cccnc12
T/C [6]: 105 % of control
T/C [7]: 94 % of control
T/C [8]: 90 % of control

C/C(=N\NC(=S)N1CCN(C)CC1)c1ccccn1
T/C (dose: 25.0 mg/kg/injection, schedule: Q04DX003 (ip), vehicle: saline): 104 % of control
T/C [3]: 107 % of control
T/C (dose: 100.0 mg/kg/injection, schedule: Q04DX003 (ip), vehicle: saline): 101 % of control
